Where two headings read alike, the source gives them in different places. Starred links: 1 amine or outer side, 2 acyl side, 3 side chain; linkers in the order of their positions; H or OH if unused. Positions of bridges follow the written chain, without caps; N, C: chain ends. Non-standard residues stand in square brackets, D forms with d. Residues, ends and D or L forms follow the SMILES beside them. X1 = O=C([C@]1(CC=[*:3])CCCN1[*:1])[*:2]; αAllylPro = C=CC[C@@]1(C(=O)O)CCCN1; Ala(cPr) = N[C@@H](CC1CC1)C(=O)O; S5 = C=CCCC[C@](C)(N)C(=O)O
How the values were obtained:
[1] = target: T1, ERβ LBD (Homo sapiens, UniProt Q92731); experiment: Competition fluorescence polarization (FP) binding assay with FITC-ERL4 probe; settings: read-out: EC50
T1 construct: pET28a+ vector containing ERβ LBD (residues from 261 to 500) along with an N-terminal His6-yBBr-TEV tag; His6 (N); yBBr (N); TEV cleavage site (N); made in house; host or cells: E. coli BL21(DE3) pLysS
Protocol: In addition to the PAMPA assay, to study the affinity of the first-generation ProLock™ stapled peptides to the Estrogen receptor p ligand-binding domain (ERβ LBD), a fluorescence polarization (FP) binding assay in competition format was used in the presence of the endogenous ERβ LBD ligand estradiol. Competition Fluorescence Polarization (FP) assay was performed on the peptides to determine their half-maximal effective concentration (EC50). To do this, FITC labeled ERL4 peptide (FITC-βAla-His-Pro-Leu-Leu-Nle-Arg-Leu-Leu-Leu-Ser-Pro-CONH2) was synthesized to be used as a fluorescence probe based on existing literature (Fuchs et al., Journal of the American Chemical Society 2013, 135 (11), 4364-4371). Direct FP was performed in black 384-well plates (Corning). The final volume of each assay well was 40 μL with constant concentration of FITC labeled ERL4 peptide (10 nM) and variable concentrations of ERβ LBD protein.
ERβ LBD expression and purification was performed as follows. BL21(DE3) pLysS E. coli cells were transformed with a pET28a+ vector containing ERβ LBD (residues from 261 to 500) along with an N-terminal His6-yBBr-TEV tag. An overnight culture in 10 mL of TB media containing 50 μg/mL kanamycin was prepared from a single bacterial colony. The overnight culture was subsequently added to 1 liter of autoclaved TB media containing 50 μg/mL kanamycin and shaken at 37° C. until an OD of 0.6-0.8 was reached. IPTG was added to the culture and left shaking for 6 hours. Bacterial culture was pelleted and resuspended in lysis buffer. Resuspended bacterial culture was incubated at 0° C. for 10 minutes before sonication at 65% amplitude with 10-sec cycles using a Branson Sonifier. The lysate was then cleared by centrifugation at 8000×g for 20 min. […] The expected molecular weight of the ERβ LBD protein is 30.8 KDa, which molecular weight was confirmed by SDS PAGE analysis. Purified ERβ LBD was concentrated to 90 μM and was stored at −80° C. buffer.
Competition FP assays were also employed. These were performed in black 384-well plates (Corning). The final volume of each assay well was 80 μL containing constant concentrations of estradiol (1 μM) and FITC labeled ERL4 (10 nM). The ERβ LBD concentration was held constant (200 nM) while varying the concentration of ProLock stapled peptides (3-fold dilution from 10 μM). Upon addition of samples to each well, the plate was centrifuged for 10 seconds at 3000 rpm and incubated at 4° C. for 1 hour. FP measurements were performed at room temperature with excitation and emission wavelengths at 485 and 535 nm using a Clariostar microplate reader (BMG Labtech). Each plate had high and low polarization samples, which are used to normalize the assay data. The competition FP results were analyzed by Prism 7 (GraphPad). The non-linear regression analysis of the data was used to determine the half-maximal effective concentration (EC50) of ProLock stapled peptides. […] The normalized FP values shown in FIG. 6 are mean±S.E.M of at least four independent replicates.

[2] = for % Retention: PAMPA
Protocol: (§1) The synthesized peptides were first analyzed with a PAMPA assay. […] The PAMPA plate system is composed of two compartments, donor and acceptor, which are separated by a phospholipid-infused membrane. The amount of compound transferred from the acceptor well into the donor well over a period of incubation time is used to determine the passive permeability of a compound.
(§2) The two plates are separated by a membrane infused with phospholipids. […] The amount of compound transferred from one well to the other is usually quantified by reverse-phase HPLC-mass spectrometry.
(§3) Briefly, all PAMPA assays were performed using the commercially available PAMPA plate system from Corning, which uses a proprietary membrane composed of structured phospholipids. […] To prevent nonspecific peptide loss to the plates, the acceptor wells of the Corning PAMPA plates were blocked overnight with 5% nonfat milk with 0.1% Triton X-100 in Dulbecco's phosphate buffer saline (DPBS) at pH=7.4, followed by extensive washing prior to assays. The donor wells and membrane itself were not exposed to the milk/Triton solution. […] The PAMPA experiments described herein were performed using plates from Corning Lot #9112010, Lot #9112011 and Lot #7317005 (Corning Inc., Corning, New York, USA).
(§4) To set up PAMPA assays, the PAMPA plate system was equilibrated at room temperature for at least an hour before setting up the assay. The acceptor plate preincubated with milk blocking solution was washed with water, followed by DPBS buffer. 300 μL of 5% DMSO in DPBS at pH=7.4 was added to the pre-blocked acceptor plate, and 200 μL of 10M compounds made with 5% DMSO in DPBS at pH=7.4 was added to the donor plate. The donor plate with a lid was then carefully inserted into the acceptor plate with no bubbles formed at the interface of donor and acceptor plates. The PAMPA assay plate was covered with aluminum foil and placed in a 37° C. incubator for 5 hours. 10 M input solution of all compounds was diluted 20-fold to a final acetonitrile concentration of 50% before analyzing by reverse-phase HPLC and Q-Exactive plus mass spectrometer. At the end of 5 hours, PAMPA donor and acceptor plates were separated and diluted 20-fold and 2-fold respectively to a final acetonitrile concentration of 50%. The diluted solutions of PAMPA donor and acceptor plates were analyzed by reverse-phase HPLC and Q-Exactive plus mass spectrometer.
(§5) Pe measures the passive permeability of each compound tested in the PAMPA assay, whereas % retention measures the amount of compound retained in solution at the end of the assay compared to the input sample.

[3] = in vitro; design: dose or concentration left out as unconfirmed; settings: PAMPA, pH 7.4, PAMPA Pe
Protocol: as §1, §2, §3, §4, §5

[4] = CHI Log D measurement (chromatographic hydrophobicity index); settings: for chromatographic logD: pH 7.4
[5] = Table 4, binding to ER LBD, estradiol 1 μM, FITC-ERL4 10 nM, ERβ LBD 200 nM, mean ± S.E.M, at least four replicates
[6] = reverse-phase HPLC, Phenomenex Gemini C-18 column
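For % Retention in this document: Phospholipid-membrane PAMPA, donor and acceptor in DPBS pH 7.4 with 5% DMSO, 37 °C for 5 h, compound in each well quantified by reverse-phase HPLC-MS.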
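For PAMPA Pe (text) in this document: Phospholipid-membrane PAMPA, donor and acceptor in DPBS pH 7.4 with 5% DMSO, 37 °C for 5 h, compound in each well quantified by reverse-phase HPLC-MS.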
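For PAMPA Pe in this document: Phospholipid-membrane PAMPA, donor and acceptor in DPBS pH 7.4 with 5% DMSO, 37 °C for 5 h, compound in each well quantified by reverse-phase HPLC-MS.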
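For Papp in this document: Phospholipid-membrane PAMPA, donor and acceptor in DPBS pH 7.4 with 5% DMSO, 37 °C for 5 h, compound in each well quantified by reverse-phase HPLC-MS.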

SMILES | EC50 ([1]; Table 2, binding to ER LBD, estradiol 1 μM, FITC-ERL4 10 nM, ERβ LBD 200 nM, mean ± S.E.M, at least four replicates) [nM] | PAMPA Pe (text) [2] | % Retention [2] [%] | Papp at 5 h [3] [×10⁻⁶ cm/s] | chromatographic logD [4] | EC50 [1, 5] [nM] | EC50 ([1]; binding towards the ERβ LBD) [nM] | PAMPA Pe [2] | chromatographic logD [4, 6] | CHI Log D compared to the parent ProLock stapled peptide ([4]; result in words)
CNC(=O)[C@H](Cc1ccc(O)cc1)NC(=O)[C@H](CCC(N)=O)NC(=O)[C@H](CC(C)C)NC(=O)[C@H](CC(C)C)NC(=O)[C@]1(C)CCCC=CC[C@]2(CCCN2C(C)=O)C(=O)N[C@@H](CC(C)C)C(=O)N[C@@H](Cc2c[nH]cn2)C(=O)N1 (single isomer, unassigned) [PLL4-7, Ac-PL3-Leu-His-S5-Leu-Leu-Gln-Tyr-NHMe] | > 10000 | 0.3-0.7 ×10^−6 cm/sec | 46 ± 3 | 0.3 ± 0.1 | 2.5 | – | – | – | – | –
CNC(=O)[C@H](CC(=O)O)NC(=O)[C@H](CC(C)C)NC(=O)[C@H](CC(C)C)NC(=O)[C@H](Cc1ccc(O)cc1)NC(=O)[C@]1(C)CCCC=CC[C@]2(CCCN2C(C)=O)C(=O)N[C@@H]([C@@H](C)O)C(=O)N[C@@H](CC(C)C)C(=O)N1 (single isomer, unassigned) [PLL5-5, Ac-PL3-Thr-Leu-S5-Tyr-Leu-Leu-Asp-NHMe] | – | – | 101 ± 5 | 1.4 ± 0.2 | 1.4 | > 10000 | – | – | – | –
CNC(=O)[C@H](CC(=O)O)NC(=O)[C@H](CCC(N)=O)NC(=O)[C@H](CC(C)C)NC(=O)[C@H](CC(C)C)NC(=O)[C@H](Cc1ccc(O)cc1)NC(=O)[C@]1(C)CCCC=CC[C@]2(CCCN2C(C)=O)C(=O)N[C@@H](CC2CC2)C(=O)N[C@@H](CC(C)C)C(=O)N1 [PLL7-7, Ac-PL3-Cpa-Leu-S5-Tyr-Leu-Leu-Gln-Asp-NHMe] (Ac-[X1][Ala(cPr)]L[S5]YLLQD-NHMe; staple 1-4) | – | exceeding 1 ×10^−6 cm/sec | 108 ± 3 | 1 ± 0.1 | – | 900 ± 100 | 800 to 1300 | 1.0 ± 0.1 (×10^−6) cm/sec | 2 | –
CNC(=O)[C@H](CC(=O)O)NC(=O)[C@H](Cc1c[nH]cn1)NC(=O)[C@H](CC(C)C)NC(=O)[C@H](CC(C)C)NC(=O)[C@H](CCCNC(=N)N)NC(=O)[C@]1(C)CCCC=CCCC[C@](C)(NC(C)=O)C(=O)N[C@@H](C)C(=O)N[C@@H](CC(C)C)C(=O)N[C@@H](CC(C)C)C(=O)N1 [PLL7-9 variant 4, Ac-S5-Ala-Leu-Leu-S5-Arg-Leu-Leu-His-Asp-NHMe] (Ac-[S5]ALL[S5]RLLHD-NHMe; staple 1-5) | – | – | 101 ± 24 | ≤ 0.1 | 2.7 | – | – | – | – | –
CC(=O)N1CCC[C@]12CC=CCCC[C@@](C)(C(=O)N[C@@H](CCCNC(=N)N)C(=O)N[C@@H](CC(C)C)C(=O)N[C@@H](CC(C)C)C(=O)N[C@@H](Cc1c[nH]cn1)C(=O)N[C@@H](CC(=O)O)C(N)=O)NC(=O)[C@H](CC(C)C)NC(=O)[C@H](CC(C)C)NC2=O (single isomer, unassigned) [PLL7-9 variant 3, Ac-PL3-Leu-Leu-S5-Arg-Leu-Leu-His-Asp-NH2] | – | – | 98 ± 10 | 0.5 ± 0.1 | 1.9 | – | – | – | – | –
CNC(=O)[C@H](CC(=O)O)NC(=O)[C@H](CCC(N)=O)NC(=O)[C@H](CC(C)C)NC(=O)[C@H](CC(C)C)NC(=O)[C@H](Cc1ccc(O)cc1)NC(=O)[C@]1(C)CCCC=CC[C@]2(CCCN2C(C)=O)C(=O)O[C@@H](CC(C)C)C(=O)N[C@@H](CC(C)C)C(=O)N1 (single isomer, unassigned) [PLL7-7 variant 2, Ac-PL3-Lec-Leu-S5-Tyr-Leu-Leu-Gln-Asp-NHMe] | – | – | 64 ± 1 | ≤ 0.1 | 2.6 | – | – | – | – | –
CNC(=O)[C@H](CCC(N)=O)NC(=O)[C@H](CC(C)C)NC(=O)[C@H](CC(C)C)NC(=O)[C@H](Cc1ccc(O)cc1)NC(=O)[C@]1(C)CCCC=CC[C@]2(CCCN2C(C)=O)C(=O)N[C@@H](CC(C)C)C(=O)N[C@@H](CC(C)C)C(=O)N1 [PLL5-12, Ac-PL3-Leu-Leu-S5-Tyr-Leu-Leu-Gln-NHMe] (Ac-[X1]LL[S5]YLLQ-NHMe; staple 1-4) | – | – | 97 ± 1 | ≤ 0.1 | – | – | – | – | 3.2 | –
C=CCCC[C@](C)(NC(=O)[C@H](CC(C)C)NC(=O)[C@H](C)NC(=O)[C@]1(CC=C)CCCN1C(C)=O)C(=O)N[C@@H](Cc1c[nH]cn1)C(=O)N[C@@H](CC(C)C)C(=O)N[C@@H](CC(C)C)C(=O)N[C@@H](CC(N)=O)C(=O)NC [PLL7-20 variant 5, Ac-PL3-Ala-Leu-S5-His-Leu-Leu-Asn-NHMe] (Ac-[αAllylPro]AL[S5]HLLN-NHMe) | – | – | 88 ± 4 | 0.3 ± 0.1 | 2.7 | – | – | – | – | –
CC(=O)N1CCC[C@]12CC=CCCC[C@@](C)(C(=O)N[C@@H](CC(N)=O)C(=O)N[C@@H](CC(C)C)C(=O)N[C@@H](CC(C)C)C(=O)N[C@H](C(=O)N[C@@H](Cc1ccc(O)cc1)C(N)=O)[C@@H](C)O)NC(=O)[C@H](CC(C)C)NC(=O)[C@H](CCCCN)NC2=O (single isomer, unassigned) [PLL4-5 variant 3, Ac-PL3-Lys-Leu-S5-Asn-Leu-Leu-Thr-Tyr-NH2] | – | – | 78 ± 8 | 0.4 ± 0.1 | 1.6 | – | – | – | – | –
CC(=O)N1CCC[C@]12CC=CCCC[C@@](C)(C(=O)N[C@@H](Cc1c[nH]cn1)C(=O)N[C@@H](CC(C)C)C(=O)N[C@@H](CC(C)C)C(=O)N[C@@H](CC(N)=O)C(N)=O)NC(=O)[C@H](CC(C)C)NC(=O)[C@H](C)NC2=O (single isomer, unassigned) [PLL7-20 variant 3, Ac-PL3-Ala-Leu-S5-His-Leu-Leu-Asn-NH2] | – | – | 76 ± 10 | 0.5 ± 0.2 | 2.1 | – | – | – | – | –
CNC(=O)[C@H](CC(=O)O)NC(=O)[C@H](CC(=O)O)NC(=O)[C@H](CC(C)C)NC(=O)[C@H](CC(C)C)NC(=O)[C@H](Cc1ccc(O)cc1)NC(=O)[C@]1(C)CCCC=CC[C@]2(CCCN2)C(=O)N[C@@H](CC(C)C)C(=O)N[C@@H](CC(C)C)C(=O)N1 (single isomer, unassigned) [PLL5-2 variant 1, H-PL3-Leu-Leu-S5-Tyr-Leu-Leu-Asp-Asp-NHMe] | – | – | 69 ± 2 | 0.4 ± 0.1 | 1.4 | – | – | – | – | –
CNC(=O)[C@H](CC(=O)O)NC(=O)[C@H](Cc1c[nH]cn1)NC(=O)[C@H](CC(C)C)NC(=O)[C@H](CC(C)C)NC(=O)[C@H](CCCNC(=N)N)NC(=O)[C@]1(C)CCCC=CC[C@]2(CCCN2)C(=O)N[C@@H](CC(C)C)C(=O)N[C@@H](CC(C)C)C(=O)N1 (single isomer, unassigned) [PLL7-9 variant 1, H-PL3-Leu-Leu-S5-Arg-Leu-Leu-His-Asp-NHMe] | – | – | 86 ± 2 | ≤ 0.1 | 3.7 | – | – | – | – | surprisingly high
CNC(=O)[C@H](CC(N)=O)NC(=O)[C@H](CC(N)=O)NC(=O)[C@H](CC(C)C)NC(=O)[C@H](CC(C)C)NC(=O)[C@H](CC1CC1)NC(=O)[C@]1(C)CCCC=CC[C@]2(CCCN2C(C)=O)C(=O)N[C@@H](C)C(=O)N[C@@H](CC(C)C)C(=O)N1 (single isomer, unassigned) [PLL7-11, Ac-PL3-Ala-Leu-S5-Cpa-Leu-Leu-Asn-Asn-NHMe] | – | – | 103 ± 2 | 0.9 ± 0.2 | 2.6 | – | – | – | – | –

From patent US20230357320A1, “HELICAL STAPLED PEPTIDES AND USES THEREOF” (FOG PHARMACEUTICALS, INC., priority 2020, published 2023)
